Laboratory results from patent US20250079000A1, “METHODS AND MARKERS FOR DIAGNOSIS OF PARKINSON'S DISEASE” (Berg LLC, priority 2021, published 2025).

Key:
[1] = NCAM short-term stability in plasma QC samples; assay type: in vitro ADME, human; conditions: HQC, MQC, LQC; 4° C. and 24° C.; 2, 4 and 24 hours; acceptance criteria −25% to 25%
Description: In the short-term stability test, three levels of QC samples were thawed from the −80° C. freezer and incubated at 4° C. or RT (18-24° C.) for 2, 4 or 24 h. The samples were then assayed and compared with samples freshly thawed from the −80° C. freezer and assayed along with the samples incubated at different conditions on the day of the assay.
Precision analyses were performed at high, medium and low concentrations (HQC, MQC, and LQC, respectively). For each concentration, twelve experiments were performed. […] Accuracy analyses were performed at two concentrations of NCAM: 10,000 pg/mL and 2,000 pg/mL. Five experiments were performed at each concentration. Recovery percentages for all experiments at both concentrations (FIG. 28C) were within the acceptance criteria of greater than or equal to 80% and less than or equal to 120%. Parallelism analyses were performed using six individual plasma samples at four dilutions. Recovery percentages (FIG. 28D) were within the acceptance criteria of greater than or equal to 75% and less than or equal to 125% for all samples tested at each of the four dilutions. Short-term stability analyses were performed at two temperatures: 4° C. and 24° C. For each temperature, high, medium and low concentration samples (HQC, MQC, and LQC, respectively) were maintained at 2 hours, 4 hours, and 24 hours.

[2] = Short-term and long-term stability of NAP spiked in 2.5% BSA standard solution; assay type: physicochemical; conditions: for Bias %, long-term stability: LTS (88 days, −80 C.); for Bias %, short-term stability: STS (24 hrs, 5 C.)
Excerpt: (§1) Detection and Quantitation of NAP using LC-MS/MS. To quantify NAP in human K2-EDTA plasma, the quantification method using LC-MS/MS was developed. Due to low circulating levels of NAP, the sensitivity of quantification was improved using derivatization of isobutyl chloroformate in the sample preparation. The validation performance of the NAP assay is summarized in Table 8-15, including linearity, precision, matrix effect, system suitability, short-term stability, long-term stability, and reproducibility in the autosampler. […] The results of validation assessed by QCs met acceptance criteria (Table 9-15).

[3] = Stability of NAP spiked in human plasma (short-term, long-term, freeze-thaw, re-injection); assay type: in vitro ADME
Excerpt: as §1

[4] = HQC, expected value 54.2 ng/mL, acceptable range 27.8-80.7
[5] = LQC, expected value 3.2 ng/mL, acceptable range 2.33-4.03

Compound | Short-term stability of plasma samples [1] | Bias %, long-term stability ([2]; L1, 1.0 ng/mL) [%] | Bias %, long-term stability ([2]; L8, 85.0 ng/mL) [%] | Bias %, short-term stability ([2]; L1, 1.0 ng/mL) [%] | Bias %, short-term stability ([2]; substock, 2000 ng/mL) [%] | Mean concentration, freeze-thaw stability (4x) [3, 4] [ng/mL] | Mean concentration, long-term stability (84 days, −80° C.) [3, 4] [ng/mL] | Mean concentration, re-injection stability in autosampler (8 days) [3, 4] [ng/mL] | Mean concentration, short-term stability (24 h, RT) [3, 4] [ng/mL] | Mean concentration, freeze-thaw stability (4x) [3, 5] [ng/mL] | Mean concentration, long-term stability (84 days, −80° C.) [3, 5] [ng/mL] | Mean concentration, re-injection stability in autosampler (8 days) [3, 5] [ng/mL] | Mean concentration, short-term stability (24 h, RT) [3, 5] [ng/mL]
P13591 (NCAM): Neural Cell Adhesion Molecule 1, cell adhesion protein, Uniprot P13591 | within acceptance criteria | – | – | – | – | – | – | – | – | – | – | – | –
CC(=O)NCCCCN [NAP, N-acetyl putrescine] | – | 10.6 | −8.1 | −3.6 | −6.7 | 42.4 | 63.4 | 46.5 | 41.0 | 3.1 | 3.2 | 3.2 | 3.1
